Data: ChEMBL document CHEMBL1201862, “PubChem BioAssay data set” (2004)
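Method: 48-hour compound exposure of cells in 96-well plates, five concentrations, linear interpolation of endpoints. Abbreviation: GI50, concentration required for 50% inhibition of growth.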 Active and inactive are the calls of the source. No stated cut-off is given here; in the data, active = GI50 up to about 1.1 µM and inactive = higher.

What was measured:
Experiment in all cases: NCI tumour cell line growth inhibition, 48 h
SK-MEL-2 = test system: SK-MEL-2
SK-MEL-28 = test system: SK-MEL-28
EKVX = test system: EKVX
RPMI-8226 = test system: RPMI-8226
SNB-75 = test system: SNB-75
RXF 393 = test system: RXF 393
SNB-19 = test system: SNB-19
SR = test system: SR
U-251 = test system: U-251
M14 = test system: M14
786-0 = test system: 786-0
K562 = test system: K562
SK-MEL-5 = test system: SK-MEL-5
Malme-3M = test system: Malme-3M
HCC 2998 = test system: HCC 2998
T47D = test system: T47D
ACHN = test system: ACHN
NCI-H23 = test system: NCI-H23
A549 = test system: A549
SK-OV-3 = test system: SK-OV-3

Row | SMILES | GI50 (SK-MEL-2) | GI50 (SK-MEL-28) | GI50 (EKVX) | GI50 (RPMI-8226) | GI50 (SNB-75) | GI50 (RXF 393) | GI50 (SNB-19) | GI50 (SR) | GI50 (U-251) | GI50 (M14) | GI50 (786-0) | GI50 (K562) | GI50 (SK-MEL-5) | GI50 (Malme-3M) | GI50 (HCC 2998) | GI50 (T47D) | GI50 (ACHN) | GI50 (NCI-H23) | GI50 (A549) | GI50 (SK-OV-3)
1 | CN(C)C(=S)NC(=S)Nc1ccc2ccccc2c1 | 13.9 µM (inactive) | 14.5 µM (inactive) | 14.1 µM (inactive) | 5.56 µM (inactive) | 24.3 µM (inactive) | 18.4 µM (inactive) | 12.3 µM (inactive) | 3.97 µM (inactive) | 11.6 µM (inactive) | 12.7 µM (inactive) | 12.8 µM (inactive) | 2.65 µM (inactive) | 7.18 µM (inactive) | 13.8 µM (inactive) | 15.5 µM (inactive) | 9.55 µM (inactive) | 18.6 µM (inactive) | 9.64 µM (inactive) | 6.73 µM (inactive) | 24.8 µM (inactive)
2 | COc1cccc2c1C(=O)c1ccc3cc(CCl)cc(O)c3c1C2=O | 0.33 µM (active) | 0.348 µM (active) | 1.09 µM (active) | 0.182 µM (active) | 0.94 µM (active) | 0.244 µM (active) | 0.897 µM (active) | 0.04 µM (active) | 0.366 µM (active) | 0.229 µM (active) | 0.174 µM (active) | 0.29 µM (active) | 0.364 µM (active) | 0.188 µM (active) | 0.951 µM (active) | 1.2 µM (inactive) | 0.233 µM (active) | 0.402 µM (active) | 0.414 µM (active) | 1.19 µM (inactive)
3 | CCOC(=O)/C=C(/C(=O)OCC)n1ccc(=O)n(Cc2cnnn2COCCOC(C)=O)c1=O | 19.9 µM (inactive) | 16.3 µM (inactive) | 16.5 µM (inactive) | 10.9 µM (inactive) | 41.2 µM (inactive) | 15.4 µM (inactive) | > 31.6 µM (inactive) | 13.4 µM (inactive) | 17.9 µM (inactive) | 17.1 µM (inactive) | 10 µM (inactive) | 4.05 µM (inactive) | 19.1 µM (inactive) | 12.5 µM (inactive) | 16.2 µM (inactive) | 9.57 µM (inactive) | 8.73 µM (inactive) | 17.1 µM (inactive) | 41.1 µM (inactive) | > 100 µM (inactive)
4 | COC(=O)CC(C#N)(OP1(=O)OC(c2ccccc2)C(C)N1C)c1ccccc1 (stereo not given) | 27.2 µM (inactive) | 31.1 µM (inactive) | 21.7 µM (inactive) | 25.1 µM (inactive) | 43.4 µM (inactive) | 20.6 µM (inactive) | 39.3 µM (inactive) | 25.9 µM (inactive) | 23.1 µM (inactive) | 31.3 µM (inactive) | 24 µM (inactive) | 24.3 µM (inactive) | 64.3 µM (inactive) | 41.8 µM (inactive) | 16.6 µM (inactive) | 28.1 µM (inactive) | 25.9 µM (inactive) | 31.5 µM (inactive) | 34.3 µM (inactive) | 40.5 µM (inactive)
5 | COc1ccc(-c2nc(N(C)C)c3ccccc3n2)cc1 | 20.5 µM (inactive) | 14.9 µM (inactive) | 3.66 µM (inactive) | 5.56 µM (inactive) | 13.5 µM (inactive) | 9.29 µM (inactive) | 17.7 µM (inactive) | 10.8 µM (inactive) | 20.5 µM (inactive) | 14.1 µM (inactive) | 10.9 µM (inactive) | 13.9 µM (inactive) | 13.1 µM (inactive) | 16.8 µM (inactive) | 6 µM (inactive) | 10.8 µM (inactive) | 7.64 µM (inactive) | 16 µM (inactive) | 6.1 µM (inactive) | 15.8 µM (inactive)
6 | CC(=O)OCc1ccc2oc(=O)c(C(=O)Oc3ccccc3)cc2c1 | > 100 µM (inactive) | 86.9 µM (inactive) | 37.8 µM (inactive) | > 100 µM (inactive) | > 100 µM (inactive) | 44.6 µM (inactive) | > 100 µM (inactive) | 33.3 µM (inactive) | > 100 µM (inactive) | > 100 µM (inactive) | 20.3 µM (inactive) | 3.72 µM (inactive) | > 100 µM (inactive) | > 100 µM (inactive) | > 100 µM (inactive) | 17.6 µM (inactive) | 91.6 µM (inactive) | 32.6 µM (inactive) | > 100 µM (inactive) | > 100 µM (inactive)
